Source: ChEMBL document CHEMBL3856234, “Development of Multifunctional Pyrimidinylthiourea Derivatives as Potential Anti-Alzheimer Agents” (J Med Chem, 2016)
Calls of active or inactive are those of the source. The rule behind the calls is not given here.

Experiments:
[1] = Solubility of the compound in water measured after 24 hrs by HPLC analysis; format: physicochemical
[2] = Plasma concentration in ICR mouse at 200 mg/kg administered through oral gavage measured after 1 hr by LC-MS/MS analysis; format: ADME, organism-based
[3] = Drug uptake in ICR mouse brain cortex at 200 mg/kg administered through oral gavage measured after 1 hr by LC-MS/MS analysis; format: ADME, organism-based; settings: read-out: Drug uptake
[4] = Drug uptake in ICR mouse brain hippocampus at 200 mg/kg administered through oral gavage measured after 1 hr by LC-MS/MS analysis; format: ADME, organism-based; settings: read-out: Drug uptake
[5] = Ratio of drug level in brain cortex to plasma in ICR mouse at 200 mg/kg administered through oral gavage; format: ADME, organism-based; settings: read-out: logBB (converted)
[6] = Ratio of drug level in brain hippocampus to plasma in ICR mouse at 200 mg/kg administered through oral gavage; format: ADME, organism-based; settings: read-out: logBB (converted)
[7] = organism: Rattus norvegicus; test: Inhibition of rat serum BuChE at 40 uM using butyrylthiocholine as substrate measured after 20 mins by Ellman's method relative to control
[8] = organism: Rattus norvegicus; test: Selectivity index, ratio of IC50 for rat serum BuChE to IC50 for rat cortex AChE
[9] = Antioxidant activity assessed as trolox equivalent of AAPH radical scavenging activity preincubated for 10 mins followed by AAPH challenge measured every min for 180 mins by ORAC-FL assay; format: functional
[10] = Inhibition of cupric ion-induced aggregation of amyloid beta (1 to 42) (unknown origin) at compound:amyloid beta (1 to 42):Cu2+ ratio of 2:1:1 measured after 24 hrs by TEM analysis
[11] = system: SH-SY5Y; test: Neuroprotective activity in human SH-SY5Y cells assessed as protection against Cu2+ induced amyloid-beta (1 to 42) neurotoxicity by measuring increase in cell viability at compound:amyloid-beta (1 to 42):Cu2+ ratio of 2:1:1 after 24 hrs by MTT assay relative to control; format: functional, cell-based
[12] = system: Mus musculus; test: Cognitive enhancing effect against scopolamine-induced memory deficit in ICR mouse assessed as reduction in escape latency at 200 mg/kg, po administered through gavage 1 hr before scopolamine-challenge measured after 20 mins by passageway water maze test; format: functional, organism-based
[13] = system: Mus musculus; test: Cognitive enhancing effect against scopolamine-induced memory deficit in ICR mouse assessed as reduction in number of errors at 200 mg/kg, po administered through gavage 1 hr before scopolamine-challenge measured after 20 mins by passageway water maze test; format: functional, organism-based
[14] = Antioxidant activity assessed as inhibition of Cu2+-induced CCA […] to 7-hydroxy-CCA by measuring decrease in hydroxyl radical production at 10 uM in presence of ascorbate by fluorescence assay
[15] = Inhibition of cupric ion-induced aggregation of amyloid beta (1 to 42) (unknown origin) at 50 uM measured after 24 hrs by dot blot assay

CCCN(CCC)Cc1cn(-c2cc(NC(=S)NCC)ncn2)cn1.Cl
solubility at 24 h [1]: 3380 µg/mL
concentration at 1 h [2]: 1740 ng/mL
concentration at 1 h [3]: 296 ng/g
concentration at 1 h [4]: 579 ng/g
Kp [5]: 0.141
Kp [6]: 0.324

CCCN(CCC)Cc1cn(-c2cc(NC(=S)NCC)ncn2)cn1
inhibition [7]: 32.8%
Ratio IC50 [8]: > 196
Activity (umolequiv/umol) [9]: 1.28
inhibition [10]: Active
Activity [11]: Active
Activity [12]: Active
Activity [13]: Active
inhibition [14]: Active
inhibition [15]: Active
